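Following 48 hours of exposure in 96-well plates, responses at five concentrations were used to interpolate endpoints linearly. GI50 marks 50% less growth. Definition used: TGI = concentration required for complete inhibition of growth.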
system: IGROV1 ovarian; experiment: growth of human tumour cells (NCI), 48 h

Row | Compound | TGI
1 | CN1C(=O)c2ccccc2NC(=O)C12O[C@@H]2c1cccc(O)c1 (some centres not stated) | > 100 µM

system: OVCAR-8 ovarian; experiment: growth of human tumour cells (NCI), 48 h

Row | Compound | TGI | GI50
2 | Cn1cnc([N+](=O)[O-])c1[Se]c1nc(N)nc2c1ncn2C1OC(CO)C(O)C1O (configuration not stated) | > 100 µM | 
3 | C=C(C)C1CCC2(C(=O)O)CCC3(C)C(CCC4C5(C)CCC(OC(=O)NCc6ccccc6)C(C)(C)C5CCC43C)C12 (configuration not stated) | > 100 µM | 7.29 µM
4 | Clc1ccc(-c2c(C3=NCCCN3)nnn2-c2ccc(Cl)cc2)cc1 | > 88.2 µM | 
5 | C=C[C@H]1C[C@@H]2C[C@@H]3[C@H]4C/C=C\C(=O)NCCCC5NC(=O)C(=C(O)/C=C/[C@@H]4CC(=O)[C@H]3[C@@H]2[C@H]1C)C5=O (some centres not stated) | 0.38 µM | 0.193 µM
6 | Cc1ccc(C(=O)Nc2ccc(CN3CCN(C)CC3)c(C(F)(F)F)c2)cc1C#Cc1cnc(N)c2ccccc12 | 2.09 µM | 0.476 µM
7 | C=C1CC[C@@H]2[C@](C)(COC(C)=O)[C@H](OC(C)=O)CC[C@@]2(C)[C@@H]1CC(Nc1ccc(S(=O)(=O)Nc2ncccn2)cc1)C1=CCOC1=O (some centres not stated) | 3.55 µM | 1.48 µM
8 | Cn1c2ccccc2c2c3[nH]c(=O)[nH]c(=O)c3c3c4ccccc4n(C)c3c21 | 14.1 µM | 2.94 µM
9 | O=C1/C(=C/c2ccc(O)cc2)CSc2ccc(Cl)cc21 | > 100 µM | 11.1 µM
10 | Fc1ccc(-c2nn3ncccc3c2-c2ccnc(Nc3ccc4c(c3)OCCO4)n2)cc1 | > 25 µM | 6.15 µM
11 | CC1(C)N=C(N)N=C(N)N1c1ccc(OCc2ccc(S(=O)(=O)F)c(Cl)c2)c(Cl)c1 | > 100 µM | 0.735 µM
12 | CO[C@H]1C=C[C@@]23c4cc5c(cc4CO[C@]2(O)CN(C)[C@H]3C1)OCO5 | > 100 µM | 
13 | COC(=O)c1c(C)[nH]c(/C=C2\N=C(c3ccc[nH]3)C=C2OC)c1C |  | 0.229 µM
14 | COc1cc2c3c(n(CCCCOC(=O)C(Cl)(Cl)Cl)c(=O)c2cc1OC)-c1cc2c(cc1C3=O)OCO2 | > 100 µM | 27.9 µM
15 | CCOC(=O)c1c(C)nc2c(c1N)/C(=C/c1ccc(OC)cc1)C(=O)N2Cc1ccc(F)cc1 | 1.06 µM | 0.257 µM
16 | C/C(=N\Nc1ccc(Cl)cn1)c1ccccn1 | > 100 µM | 0.0704 µM
17 | COc1cc(NS(=O)(=O)c2ccc(-c3cnc(C4CC4)o3)cc2)ccc1F | 56.5 µM | 0.745 µM
18 | CC(C)CCCC(=O)CCCCCCC(=O)CCN(O)C(=O)C(N)CO (configuration not stated) | 39.3 µM | 
19 | Cc1ccc(NC(=O)NCCCOc2ccc(N3C(N)=NC(N)=NC3(C)C)cc2Cl)cc1S(=O)(=O)F | > 100 µM | 7.85 µM
20 | CC[CH2][Sn]([Cl])([Cl])[CH2]CC.Oc1ccccc1C=NCCN=Cc1ccccc1O | 27.7 µM | 12.3 µM
21 | COc1ccccc1Cn1cc2c(c1-c1ccccc1)CCc1cnoc1-2 | > 100 µM | 6.22 µM
22 | COc1cc2c(c(OC)c1OC)C(=O)[C@@H]1c3ccc([N+](=O)[O-])cc3C(=O)N(CCCBr)[C@H]21 | 37.6 µM | 10.2 µM
23 | Nc1ncn(C2CC(O)C(CO)O2)c(=O)n1 (configuration not stated) | 370 µM | 
24 | C/C=C(\C)CC/C=C/CO[Si](C)(C)C(C)(C)C | > 100 µM | 
25 | COc1cc2c3c(n(C)c(=O)c2cc1OC)-c1cc2c(cc1/C3=C\CNCCCN)OCO2 | 1.05 µM | 0.13 µM
26 | O=C(/C=C\n1cnc(-c2cc(C(F)(F)F)cc(C(F)(F)F)c2)n1)NNc1cnccn1 | 36.5 µM | 0.0769 µM
27 | NCCCn1c2c(c3ccc([N+](=O)[O-])cc3c1=O)C(=O)c1cc(Br)ccc1-2 | 0.188 µM | 0.0271 µM
28 | CN1C(=O)c2ccccc2NC(=O)C12O[C@@H]2c1cccc(O)c1 (some centres not stated) | > 100 µM | 

system: 786-0 renal; experiment: growth of human tumour cells (NCI), 48 h

Row | Compound | TGI | GI50
29 | Cn1cnc([N+](=O)[O-])c1[Se]c1nc(N)nc2c1ncn2C1OC(CO)C(O)C1O (configuration not stated) | > 100 µM | 
30 | C=C(C)C1CCC2(C(=O)O)CCC3(C)C(CCC4C5(C)CCC(OC(=O)NCc6ccccc6)C(C)(C)C5CCC43C)C12 (configuration not stated) | > 100 µM | 3.98 µM
31 | Clc1ccc(-c2c(C3=NCCCN3)nnn2-c2ccc(Cl)cc2)cc1 | > 77.1 µM | 
32 | C=C[C@H]1C[C@@H]2C[C@@H]3[C@H]4C/C=C\C(=O)NCCCC5NC(=O)C(=C(O)/C=C/[C@@H]4CC(=O)[C@H]3[C@@H]2[C@H]1C)C5=O (some centres not stated) | 0.329 µM | 0.173 µM
33 | Cc1ccc(C(=O)Nc2ccc(CN3CCN(C)CC3)c(C(F)(F)F)c2)cc1C#Cc1cnc(N)c2ccccc12 | 1.08 µM | 0.435 µM
34 | C=C1CC[C@@H]2[C@](C)(COC(C)=O)[C@H](OC(C)=O)CC[C@@]2(C)[C@@H]1CC(Nc1ccc(S(=O)(=O)Nc2ncccn2)cc1)C1=CCOC1=O (some centres not stated) | 3.39 µM | 1.77 µM

Reference: PubChem BioAssay (NCI)
